Where “and” joins values, the source holds several entries; their conditions need not be identical. Identical values can stand only once.
Key:
[1] = system: oxygen consumption of the rat; experiment: Oxygen consumption in metabolism apparatus for small animals (BARGETON and […]); type: in vivo
Excerpt: The results obtained are given as percentage of the control tests in the following table I.

glucidic metabolism = experiment: Glucidic metabolism under intravenous perfusion in rabbits (lactacidemia, pyruvicemia, glycemia); type: in vivo, rabbit
Experimental: These tests were carried out on rabbits weighing an average of 2.500 kg.
A trachetomy was carried out under local anaesthesia with procaine. […] A saphenous vein and the two femoral arteries were catheterized under local anaesthesia in order to register the blood pressure by a manometer and to take blood samples; a jugular vein was catheterized to the base of the skull to sample cerebral venous blood.
The results obtained were compared with those obtained following a perfusion carried out in the same way with sodium d,l-lactate at a dose of 40 mg/kg/min.
The glycemia was measured by the enzymatic method in the arterial and cerebral venus blood. The samples were taken before the perfusion, at the end of the perfusion, and at 30 minutes and 60 minutes after perfusion.

Hypercapnic anoxemia = Hypercapnic anoxemia in rabbits; type: in vivo, rabbit
Experimental: The tests were done on rabbits weighing an average of 2.5 kg. The fastening of the cranial electrodes was done under local anaesthesia with procaine, as was the placing of the catheters in a femoral artery to record the blood pressure. The tracheotomies and tracheal intubations were also done under local anaesthesia using procaine. The temperature was maintained at around 38° C. Three types of anoxemia were investigated; 2. Hypercapnic anoxemia: The above-mentioned artificial ventilation of the animal after curarization was stopped. Stopping of the cerebral electrogenesis was obtained after an average of 120 seconds. 3. Nitrogen anoxemia: The animal was curarized and artifically ventilated as indicated above. Anoxemia was obtained by connecting a nitrogen gasbag to the air intake of the BEAUDOUIN apparatus; general non-hypercapnic anoxemia occurred. Air was […] seconds. […] A latency of 30 minutes was observed before anoxemia was caused.

[2] = system: reticulo-endothelial system; experiment: Phagocytic activity of the reticulo-endothelial system, carbon clearance (HALPERN); type: in vivo, rabbit; details: 1 g/kg
Excerpt: That technique is based on the study of the kinetics of the disappearance in the blood of particles of carbon injected into the vein. The kinetics of disappearance follow the equation [formula] in which formula C1 is the concentration of carbon in the blood at time T1 and C2 is the concentration of carbon in the blood at time T2, K being a constant. The constant K, called phagocytic index, represents the phagocytic activity of the cells of the reticule-endothelial system under the experimental conditions. For the tests, the technique and carbon suspension described by […]. Physiol. of Paris, Vol. 50, p. […] The study was done on rabbits of the same stock, male or female, or an average weight of about 2.5 kg, devided into four batches of four animals each. The first batch was used as controls and received, by slow intravenous injection, 10 ml of a 0.8% solution of sodium chloride ten minutes before the injection of 4 mg of carbon per 100 g of animal. […] In all the tests, a total volume of 10 ml was injected with a fairly closely related injection speed (less than five minutes).

[3] = system: erythrocytic aggregation of the microcirculation (sludge); experiment: Erythrocytic aggregation of the microcirculation (sludge), mesenteric circulation of the rabbit; type: in vivo; details: independent of the experimental cause of sludge
Experimental: This phenomenon was observed by using the technique developed by […] and BRUE (Agressologie, Vol. 4, No. 3, p. 299 ff of 1963): it entails a microscopic observation of the mesenteric circulation of the rabbit. […] The hemorrhagic shock was obtained by the […] method. The perfusion of adrenalin was carried out at a dose of 10 mg/kg/min. for 10 to 15 minutes. The perfusion of lactate was effected at a dose of 0.39 g/min for 15 minutes. The perfusion of ethyl alcohol (in a 20% aqueous solution) was carried out at a dose of 20 ml of solution (i.e. 4 ml of absolute alcohol) for 15 minutes.

rats = experiment: Toxicity, intraperitoneal injection in rats

O=C(CO)CO [dihydroxyacetone]
mean decrease (oxygen consumption) ([1]; 2 g / kilogram): 6.5 | Difference between the control measurement and the measurement after injection (oxygen consumption) ([1]; 2 g/kg, individual tests No. 1 to 12): 0 percentage of the control test and -18 percentage of the control test and -16 percentage of the control test and -13 percentage of the control test and -11 percentage of the control test | mean decrease (oxygen consumption) ([1]; 4 g / kilogram): 4.1 | Difference between the control measurement and the measurement after injection (oxygen consumption) ([1]; 4 g/kg, individual tests No. 1 to 8): -13 percentage of the control test and -10 percentage of the control test | oxygen consumption of the rat ([1]; overall result in words): decreased the oxygen consumption of the rat | lactacidemia compared with perfusion of sodium lactate (glucidic metabolism; 66 mg/kg over 15 minutes): values lower than those obtained after a perfusion of sodium lactate | lactacidemia at 30 and 60 minutes after the end of perfusion (glucidic metabolism; 30 and 60 minutes after perfusion): continued to increase at 30 and 60 minutes after the end of perfusion | glycemia (glucidic metabolism; after a perfusion): increased considerably | lactacidemia when perfusion of sodium lactate was followed by perfusion of dihydroxyacetone (glucidic metabolism; after sodium lactate): a progressive fall in the lactacidemia | pyruvicemia (glucidic metabolism; rabbit, intravenous perfusion): increased in parallel with lactacidemia | recuperation latency, hypercapnic anoxemia (Hypercapnic anoxemia; 1 g/kg intravenously): an improvement which was difficult to measure | survival time, hypercapnic anoxemia (Hypercapnic anoxemia; 1 g/kg intravenously, prior perfusion): pronounced | recuperation time, hypercapnic anoxemia (Hypercapnic anoxemia; 1 g/kg intravenously, result in words): a clear improvement | recuperation time, hypercapnic anoxemia (Hypercapnic anoxemia; for 2 minutes of anoxemia): ≤ 30 s | speed of purification of the carbon particles with respect to control animals ([2]; 10 minutes before lactic acid 0.9 g/kg, FIG. 6): considerably increases | speed at which the carbon particles disappear with respect to control animals ([2]; FIG. 5): practically no change | intravascular aggregation (sludge) [3]: caused the intravascular aggregation to disappear | mesenteric capillary circulation [3]: re-established the mesenteric capilliary circulation | animals died, repeated injection every 2 hours (rats; 4.5 g/kg every 2 hours, third group of 5 rats): 3 animals | maximum non-lethal dose (rats; intraperitoneal injection, rats): about 7.50 g/kg

Reference: patent US4049795A, “Treatment of hemorrhagic shock” (priority 1974, dated 1977)
